Data set [1] concerns the target T1, Bile acid receptor (Homo sapiens) (UniProt Q96RI1).
T1 sequence (whole entry): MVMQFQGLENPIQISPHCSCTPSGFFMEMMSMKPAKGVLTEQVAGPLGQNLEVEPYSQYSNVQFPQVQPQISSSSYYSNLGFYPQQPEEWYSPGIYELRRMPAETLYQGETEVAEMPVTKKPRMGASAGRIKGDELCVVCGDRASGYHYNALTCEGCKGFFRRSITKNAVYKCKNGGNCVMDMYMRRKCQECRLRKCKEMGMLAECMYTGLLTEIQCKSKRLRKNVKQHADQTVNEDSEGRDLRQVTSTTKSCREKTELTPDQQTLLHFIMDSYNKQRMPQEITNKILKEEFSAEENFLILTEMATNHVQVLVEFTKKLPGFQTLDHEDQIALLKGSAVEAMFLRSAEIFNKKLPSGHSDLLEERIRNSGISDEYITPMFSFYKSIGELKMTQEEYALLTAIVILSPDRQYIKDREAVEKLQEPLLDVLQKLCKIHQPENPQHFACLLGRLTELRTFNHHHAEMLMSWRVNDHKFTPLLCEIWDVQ
Nature of the data set: Agonist activity at human FXR expressed in human HepG2 cells assessed as transactivation of SHP gene at 400 uM by measuring relative luciferase activity by transient transfection reporter assay. Type of data set: functional, cell-based. A general note: A reporter such as luciferase makes a cellular process visible.

In data set [2] the target is T1, Bile acid receptor (Homo sapiens). Briefly: Antagonist activity at human FXR expressed in human HepG2 cells assessed as upregulation of CYP7A1 gene transactivation at 10 uM by measuring relative luciferase activity by transient transfection reporter assay relative to control. Type of data set: functional, cell-based.
For data set [3] the target is unchanged. Nature of the data set: Antagonist activity at human FXR expressed in human HepG2 cells assessed as inhibition of CDCA-induced transactivation of SHP gene by measuring relative luciferase activity by transient transfection reporter assay relative to control. Type of data set: functional, cell-based.
Data set [4] has the same target. Nature of the data set: Antagonist activity at human FXR expressed in human HepG2 cells assessed as inhibition of CDCA-induced transactivation of SHP gene at 50 uM by measuring relative luciferase activity by transient transfection reporter assay relative to control. Format: functional, cell-based.
The target of data set [5] is T2, Progesterone receptor (Homo sapiens) (UniProt P06401).
T2 sequence (whole entry): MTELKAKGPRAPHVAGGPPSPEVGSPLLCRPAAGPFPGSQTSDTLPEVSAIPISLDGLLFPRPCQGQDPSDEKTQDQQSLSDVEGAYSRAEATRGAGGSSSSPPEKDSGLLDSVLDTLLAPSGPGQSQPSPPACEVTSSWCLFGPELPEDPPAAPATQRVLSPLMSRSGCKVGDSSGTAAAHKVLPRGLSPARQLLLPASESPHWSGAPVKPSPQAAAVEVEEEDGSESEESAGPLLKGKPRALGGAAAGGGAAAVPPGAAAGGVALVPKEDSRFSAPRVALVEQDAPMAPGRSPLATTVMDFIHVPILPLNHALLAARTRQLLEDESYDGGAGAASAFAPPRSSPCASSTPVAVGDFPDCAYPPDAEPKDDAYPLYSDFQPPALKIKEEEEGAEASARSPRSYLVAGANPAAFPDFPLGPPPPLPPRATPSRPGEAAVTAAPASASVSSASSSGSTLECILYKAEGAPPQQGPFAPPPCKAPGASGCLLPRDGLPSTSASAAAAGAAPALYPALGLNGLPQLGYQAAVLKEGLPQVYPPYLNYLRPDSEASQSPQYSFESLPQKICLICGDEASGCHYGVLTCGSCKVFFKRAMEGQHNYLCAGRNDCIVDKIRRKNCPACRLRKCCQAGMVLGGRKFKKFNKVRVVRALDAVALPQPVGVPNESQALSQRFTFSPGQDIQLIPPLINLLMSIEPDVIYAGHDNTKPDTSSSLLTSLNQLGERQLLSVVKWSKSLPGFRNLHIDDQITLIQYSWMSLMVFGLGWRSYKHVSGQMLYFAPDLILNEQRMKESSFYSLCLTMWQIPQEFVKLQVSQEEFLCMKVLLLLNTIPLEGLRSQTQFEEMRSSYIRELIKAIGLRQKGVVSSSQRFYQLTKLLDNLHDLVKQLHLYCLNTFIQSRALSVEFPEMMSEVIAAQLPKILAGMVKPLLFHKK
Nature of the data set: Agonist activity at human PR expressed in human HepG2 cells assessed as MMTV gene promoter transactivation at 100 uM by measuring relative luciferase activity by transient transfection reporter assay relative to control. Type of data set: functional, cell-based.

In data set [6] the target is T1, Bile acid receptor (Homo sapiens). Nature of the data set: Antagonist activity at human FXR expressed in human HepG2 cells assessed as inhibition of CDCA-induced transactivation of SHP gene at 10 uM by measuring relative luciferase activity by transient transfection reporter assay relative to control. Format: functional, cell-based.
The target is the same in data set [7]. Briefly: Antagonist activity at human FXR expressed in human HepG2 cells assessed as upregulation of CYP7A1 gene transactivation at 100 uM by measuring relative luciferase activity by transient transfection reporter assay relative to control. Type of data set: functional, cell-based.
For data set [8] the target is unchanged. Briefly: Antagonist activity at human FXR expressed in human HepG2 cells assessed as inhibition of CDCA-induced transactivation of SHP gene at 100 uM by measuring relative luciferase activity by transient transfection reporter assay relative to control. Type of data set: functional, cell-based.
In data set [9] the target is T2, Progesterone receptor (Homo sapiens). Briefly: Agonist activity at human PR expressed in human HepG2 cells assessed as MMTV gene promoter transactivation at 10 uM by measuring relative luciferase activity by transient transfection reporter assay relative to control. Format: functional, cell-based.
In a further data set the test system is HepG2. Briefly: Cytotoxicity against human HepG2 cells. Format: cell-based.
Data set [10] deals with Cellular tumor antigen p53 (Homo sapiens) (UniProt P04637). Briefly: Transactivation of p53 in human HepG2 cells expressing MDM2 promoter by transient transfection reporter assay. Format: cell-based.

The source of these data is ChEMBL document CHEMBL2203190, “Sesquiterpenoids from Atractylodes macrocephala act as farnesoid X receptor and progesterone receptor modulators” (Bioorg Med Chem Lett, 2012).

Calls of active or inactive are those of the source. No cut-off for these calls is given here.

By inhibition is commonly meant how much of the control response was suppressed.

Sequence of Cellular tumor antigen p53 (Homo sapiens) (P04637 whole entry, looked up): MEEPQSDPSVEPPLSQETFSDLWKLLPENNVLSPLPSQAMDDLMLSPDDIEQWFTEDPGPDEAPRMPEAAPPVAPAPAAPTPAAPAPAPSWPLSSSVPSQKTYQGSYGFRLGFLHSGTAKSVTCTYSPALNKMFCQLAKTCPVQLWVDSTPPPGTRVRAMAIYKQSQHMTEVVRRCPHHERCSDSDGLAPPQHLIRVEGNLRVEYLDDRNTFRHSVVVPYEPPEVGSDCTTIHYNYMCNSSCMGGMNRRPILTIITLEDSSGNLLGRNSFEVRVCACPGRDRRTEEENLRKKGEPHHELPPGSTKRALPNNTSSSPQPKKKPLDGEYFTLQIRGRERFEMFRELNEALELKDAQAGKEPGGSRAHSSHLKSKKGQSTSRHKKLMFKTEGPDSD

For the compound `C=C1CCC[C@]2(C)C[C@@H]3OC(=O)C(C)=C3C[C@@H]12`, the outcome in [1] and in data set [5] was inactive. The results for the fold change (FC) in data set [2] and in [7] were 1.5 and 2, respectively. Moreover, the inhibition result is “Dose-dependent effect” in data set [3] and 50% in [4]. Besides, the RLU in data set [6] is 1.5; in data set [8], 0.9.
In the case of `CC(=O)[C@H]1CC[C@H]2[C@@H]3CCC4=CC(=O)CC[C@]4(C)[C@H]3CC[C@]12C`, in data set [9], the RLU was 2.38.
On to `C=C1CCC[C@]2(C)C[C@]3(O)OC(=O)C(C)=C3C[C@@H]12`, for which the result in [1] was inactive. In addition, the fold change (FC) in data set [2] was found to be 1.5. Further, the results for the inhibition result in data set [3] and in data set [4] were “Dose-dependent effect” and 50%, respectively. In addition, the RLU amounted to 3.39 in data set [5], 1.7 in [6], 1.57 in data set [9] and 0.85 in data set [8].
For `C=C1CCC[C@]2(C)C=C3OC(=O)C(C)=C3C[C@@H]12` [ATRACTYLENOLIDE I], the Activity result with HepG2 is given as “Toxic”. For the same compound, the result in data set [10] was Active.
